Patent US9486438B2, “Combination dosage forms and therapies for supporting bone health” (Primus Pharmaceuticals Inc., priority 2008, dated 2016)

Columns and labels:
[1] = Ensrud et al., J Bone Miner Res. 2004; cited from earlier work
[2] = tested on: younger postmenopausal women; details: 10 000 U vitamin D3/wk added to calcium 1000 mg/d, postmenopausal women (age: 56 y); Cooper et al. 2003; cited from earlier work
[3] = vitamin D3 added to estrogen therapy; Tuppurainen et al. 1998; cited from earlier work
ovariectomized rats [4] = assay: Genistein dose-ranging preclinical study: serum markers of bone resorption and formation; format: in vivo, Sprague-Dawley rats
Procedure: (§1) This study was carried out to evaluate the effects of different human dose equivalents of genistein (aglycone) alone, or in combination with supplemental calcium carbonate and vitamin D3, on bone density, markers, and histology in ovariectomized rats. Forty-eight three month old ovariectomized (OVX) female Sprague-Dawley rats were purchased from Charles River Laboratories. Animals were maintained in plastic cages under standard environmental conditions with water and standard rat chow available ad libitum at the Animal Facility of the Department of Clinical and Experimental Medicine and Pharmacology of the University of Messina, Messina, Italy. After 1 week of acclimation, animals were randomly assigned to 12 different treatment groups that lasted for 6 weeks as summarized in Table 1 below:
(§2) Genistein doses were converted into human equivalents by using the following formula: (human dose in mg/m^2)=(kin)×(dose in mg/kg) where human m^2 for a person of 60 kg (considered as a medium weight for our cohort of post-menopausal women) is 1.62 and km is the conversion factor (for a rat of 250 gr is 7.0) {Freireich, 1966 4611/id. Genistein was diluted in a 1:1 solution of 0.9% NaCl and DMSO and administered by intraperitoneal injection. Animals received 50% supplementation of their normal daily intake of calcium and vitamin D3 (50.4 IU/kg/day) by oral gavage, which equated to 366.52 mg/kg/day of calcium and 50.4 IU/kg/day of vitamin D3.
(§3) Bone mineral density of the right femur was measured using dual-energy X-ray absorptiometry. The coefficient of variation for femur BMD was 1.16%. Animals were maintained under controlled conditions for 6 weeks, at the end of the experiments were sacrificed under general anaesthesia (with chloral hydrate 400 mg/kg/ip) after blood collection by cardiac puncture. Blood was centrifuged and serum stored immediately at −20° C. for analysis. Serum was used to quantify markers of bone resorption [soluble receptor activator of nuclear factor kappaB ligand (sRANKL) and C-terminal telopeptide (CTX)] and formation [bone-specific alkaline phosphatase and osteoprotegerin (OPG)].

ovariectomized rats [5] = assay: Genistein dose-ranging preclinical study: bone mineral density of the right femur by dual-energy X-ray absorptiometry; format: in vivo, Sprague-Dawley rats
Procedure: as §1, §2, §3

[6] = tested on: ovariectomized (OVX) female Sprague-Dawley rats; assay: Genistein bone architecture study: femoral head histology; format: in vivo; details: human equivalent dose of 54 mg/day (4.76 mg/kg/day i.p.), photomicrographs, preliminary evidence, to approximately that of non-ovariectomized animal
From the text: Three month old ovariectomized (OVX) female Sprague-Dawley rats were purchased from Charles River Laboratories. Animals were maintained in plastic cages under standard environmental conditions with water and standard rat chow available ad libitum at the Animal Facility of the Department of Clinical and Experimental Medicine and Pharmacology of the University of Messina, Messina, Italy.
Dose Calculation—Genistein doses were converted into animal equivalents by using the following formula: (human dose in mg/m^2)=(km)×(dose in mg/kg) where human m^2 for a person of 60 kg (considered as a medium weight for our cohort of post-menopausal women) is 1.62 and km is the conversion factor (for a rat of 250 gr is 7.0) {Freireich, 1966 4611/id}. Therefore, animals given the human equivalent of 54 mg/day were administered 4.76 mg/kg/day. Genistein was diluted in a 1:1 solution of 0.9% NaCl and DMSO and administered by intraperitoneal injection in a volume of […].
Histology—Rat femora decalcified in 4% EDTA for approximately 1 week and then processed for routine paraffin embedding following standard procedures. Sections were cut at the femoral head just proximal to the coxofemoral joint and stained with hematoxylin and eosin.

post-menopausal women = details: administered for one year to post-menopausal women; Morabito et al. 2002; cited from earlier work
[7] = serum, OVX rats, genistein 0-1000 mg/day human dose equivalents i.p., 6 weeks, p<0.001, FIG. 1

Compound: NCCCC(O)(P(=O)(O)O)P(=O)(O)O [alendronate]
- reducing fractures beyond 5 years of treatment [1]: no benefit

Compound: C=C1CC[C@H](O)C/C1=C/C=C1\CCC[C@]2(C)[C@@H]([C@H](C)CCCC(C)C)CC[C@@H]12 [vitamin D3]
- bone mineral density beyond calcium supplementation alone [2]: did not confer benefits
- lumbar or femoral bone mineral density changes [3]: no statistically significant improvement

Compound: O=c1c(-c2ccc(O)cc2)coc2cc(O)cc(O)c12 [genistein, 4′,5,7-trihydroxyisoflavone]
- RANKL/OPG ratio (ovariectomized rats [4]; OVX rats, genistein i.p., 6 weeks, p<0.001, FIG. 3): decreased
- dose at which the genistein effect reached a plateau (ovariectomized rats [4]; bone markers, BMD and RANKL/OPG ratio, no further significant improvement beyond this dose by post-hoc testing): 54 mg human dose equivalent
- Bone specific alkaline phosphatase (marker of bone formation) (ovariectomized rats [4]; [7]): dose-dependently increased
- CTX (marker of bone resorption) (ovariectomized rats [4]; [7]): decreased
- osteoprotegerin (marker of bone formation) (ovariectomized rats [4]; [7]): dose-dependently increased
- sRANKL (marker of bone resorption) (ovariectomized rats [4]; [7]): decreased
- BMD when supplemented with vitamin D3 and calcium (ovariectomized rats [5]; equivalent of 54 mg genistein per day, only group showing it): statistically significant preservation
- bone mineral density (ovariectomized rats [5]; femur, OVX rats, genistein i.p., 6 weeks, p<0.001, FIG. 2): increases
- BMD when supplemented with vitamin D3 or calcium (ovariectomized rats [5]; genistein 27, 200, 500 and 1,000 mg human equivalent doses, even worsened in some instances): no improvement
- BMD over 6 weeks in calcium and vitamin D3-replete rats (ovariectomized rats [5]; genistein at 54 mg/day and above (human dose equivalents)): significant increases
- trabecular architecture (trabecular rod number and thickness) of femoral head [6]: restores trabecular architecture
- bone mineral density (post-menopausal women): improve
- several biochemical markers of bone health (post-menopausal women): improve
